Series [1] can be described thus: Stability of aqueous formulation on shelf storage / accelerated storage. The format is physicochemical.
Series [2] can be described thus: Particulate matter in aqueous solution (USP requirements). The following applies: aqueous solution of ganciclovir base at about or below about 3 mg/ml. Type of series: physicochemical. The text has this:
As used herein, the term “particulate-matter-free” or its grammatical equivalents such as “particle free” refer to the state in which the composition of the present invention meets the USP requirements for particulate matter in parenteral solutions. See for example, USP XXXII, Chapter 788. One of skill in the art understands and knows how to assess whether a given composition meets USP particulate matter requirements.

The conditions of series [3]: cited from earlier work.
The conditions of series [4]: cited from earlier work. The source holds these as a separate data set.

Where two headings read alike, the source gives them in different places.

As for `Nc1nc2c(ncn2COC(CO)CO)c(=O)[nH]1` [ganciclovir base, 9-(1,3-dihydroxy-2-propoxymethyl)guanine], the “retained initial concentration of ganciclovir” value in series [1] (aqueous solution at about or below about 3 mg/ml, accelerated storage or stability testing conditions) is reported as “at least 95%”. In series [1] (aqueous solution of ganciclovir base at concentrations of about or below about 3 mg/ml), the “stability for extended shelf-storage” value was “stable for extended shelf-storage”. In series [2], the particulate matter entry is recorded as “free or substantially free of particulate matter”. Also, the solubility in water entry in series [3] was “limited solubility in water”.

Take `Nc1nc(O)c2ncn(COC(CO)CO)c2n1` [ganciclovir sodium]: the solubility in water result in series [3] (listed as Ganciclovir sodium salt) is recorded as “very soluble in water”. In addition, in series [4], the “stability in an aqueous formulation (prolonged shelf-storage)” value is given as “not sufficiently stable”.

The record behind these values is US20250319189A1, “GANCICLOVIR COMPOSITIONS AND RELATED METHODS” (Exela Pharma Sciences, LLC, priority 2013, published 2025).
